Data: Sander's compilation of Henry's law constants (doi:10.1021/ac00062a008)

Assay: Henry solubility constant Hcp at 298.15 K (mol/(m3 Pa))
Conditions: reference: Zhang and Pawliszyn (1993)

Compound	Henry solubility constant Hcp
Cc1ccccc1 [methylbenzene]	0.0015
Cc1ccccc1C [1,2-dimethylbenzene]	0.0027
c1cc2c3c(cccc3c1)CC2 [acenaphthene]	0.11
Cc1ccc(C)cc1 [1,4-dimethylbenzene]	0.0017

Now from value to molecule:

Henry solubility constant Hcp	Compound
0.25	c1ccc2c(c1)ccc1ccccc12 [phenanthrene]
9.4	c1ccc2c(c1)ccc1c3ccccc3ccc21 [chrysene]
0.11	c1ccc2cc3ccccc3cc2c1 [anthracene]
0.021	c1ccc2ccccc2c1 [naphthalene]
0.0015	c1ccccc1 [benzene]
0.0025	CCc1ccccc1 [ethylbenzene]
